Experimental findings from patent US20240353338A1 (priority 2023, published 2024) are described below.

The test concerns early Delta variant of SARS-CoV-2. The format is cell-based.

In the case of `C[C@@H](OC(C)(C)C)[C@H](NC(=O)OCc1ccccc1)C(=O)N[C@@H](CC1CCCCC1)C(=O)N[C@H](C=O)C[C@@H]1CCNC1=O` [MPI8], the “antiviral effectiveness (virus growth by reverse transcriptase quantitative PCR)” value is “inhibition of virus growth”.
